Consider 1 compound from article PMC13439108, “An antibody–drug conjugate active against antibiotic-resistant Neisseria gonorrhoeae” (Proceedings of the National Academy of Sciences of the …, 2026).

For one data set, the system named is HK-2 cells. The experiment in a line: LDH release cytotoxicity. The data set is classed as cell-based, human. Conditions: n = 3. Here is the method:
HK-2 cells (CRL-2190™, Americab Type Culutre Collection (ATCC)), a proximal renal tubule cell(7), and End1/E6E7 (CRL-2615™, ATCC) upper cervical epithelial cells(8) were cultured in Keratinocyte Serum Free Medium (Invitrogen, Life Technologies Ltd.) with human recombinant EGF (5 ng ml-1) and bovine pituitary extract (0.05 mg ml−1) at 37°C in 5% CO2. Cells were seeded in 96-well plates (Corning, Polystyrene) at a density of 2 × 10^4 cells/well 24 hr prior; Triton-X-100 (0.1%) and Digitonin (30 μg ml−1) were used as controls. Lactate dehydrogenase (LDH) release was measured using the Biovision kit; the OD490 was assessed in a SpectraMax M5 plate reader. […]
In general terms: LDH in the medium is a marker of cell lysis.

The test system of the next data set is N. gonorrhoeae MS11ΔmtrE. The settings on record: microdilution in FB, ~5 × 10^4 CFU, 24 hr, 37°C, 5% CO2. How it is done: (§1) columns (ThermoFisher scientific). Activated mAb was added to 0.9 mg of Oct-TriA1 analogues (synthesised by ISCA Biochemicals, UK) and incubated at room temperature for 60 min. ADCs were dialysed using slide-A-Lyzer cassette (20K MWCO, ThermoFisher scientific) into PBS overnight at 4 °C […]
(§2) MALDI-TOF MS analysis for determination of intact mass mAbs or ADCs with a concentration of 1 mg/mL were acidified with 1% trifluoroacetic acid and mixed with Super DHB matrix, 1 μl was spotted onto an MTP Anchorchip 600/384. For every mAb, three sample spots were prepared from the same solution using three protocols advised by the manufacturer. MALDI-TOF measurements were performed on a Microflex LRF mass spectrometer, equipped with a 60Hz nitrogen laser at 337nm. Number of peptides conjugated was calculated using the MALDI-TOF molecular weights (MW) [MW = M+] of each ADC, the unconjugated antibody (mAb), and the molecular weights of Oct-TriA1 analogues using the following equation.
(§3) Number of peptides = MW ADC − MW mAb […]
(§4) Determination of Oct-TriA1 Minimum Inhibitory Concentration (MIC)
(§5) N. gonorrhoeae was resuspended in PBS to an ODA600 1.0, and ̴5 × 10^4 CFU added to wells of a microdilution plate containing dilutions of antimicrobials in FB. Plates were incubated for 24 hr at […]
(§6) 37°C, in 5% CO2 then 10 μl aliquots plated onto GCB agar. The MIC was defined as the lowest concentration of an antimicrobial that prevented bacterial growth. […]
(§7) Peptide concentration in ADC preparations
(§8) Peptide concentrations for ADCs were calculated from the antibody concentration, the drug-to-antibody ratio (DAR), and the peptide molecular weight using the following formula:
(§9) Conc. peptide (µg/mL) = Conc. ADC (µg/mL) × DAR x MWpeptide (Da) […]
(§10) Where Conc. ADC is the ADC/ mAb concentration, MWADC is the mAb molecular weight (150 kDa), MWpeptide is the peptide molecular weight and DAR is the average number of peptides per conjugate.
(§11) This formula was used to convert ADC concentrations to peptide concentrations for all assays. […]
On the technique in general: Broth dilution looks for growth in wells or tubes with falling amounts of substance.

The test system of the next data set is N. gonorrhoeae WHO N. Conditions: microdilution in FB, ~5 × 10^4 CFU, 24 hr, 37°C, 5% CO2. Here is the method:
as §1, §2, §3, §4, §5, §6, §7, §8, §9, §10, §11

The subject of another data set is N. gonorrhoeae WHO M. The settings on record: microdilution in FB, ~5 × 10^4 CFU, 24 hr, 37°C, 5% CO2. How it is done:
as §1, §2, §3, §4, §5, §6, §7, §8, §9, §10, §11

Another data set deals with N. gonorrhoeae WHO K. The settings on record: microdilution in FB, ~5 × 10^4 CFU, 24 hr, 37°C, 5% CO2. How it is done: as §1, §2, §3, §4, §5, §6, §7, §8, §9, §10, §11
In a further data set the test system is N. gonorrhoeae WHO O. The settings on record: microdilution in FB, ~5 × 10^4 CFU, 24 hr, 37°C, 5% CO2. Here is the method: as §1, §2, §3, §4, §5, §6, §7, §8, §9, §10, §11
For the next data set, the system named is N. gonorrhoeae MS11. The settings on record: microdilution in FB, ~5 × 10^4 CFU, 24 hr, 37°C, 5% CO2. How it is done: as §1, §2, §3, §4, §5, §6, §7, §8, §9, §10, §11
A further data set deals with N. gonorrhoeae WHO G. The settings on record: microdilution in FB, ~5 × 10^4 CFU, 24 hr, 37°C, 5% CO2. Here is the method:
as §1, §2, §3, §4, §5, §6, §7, §8, §9, §10, §11

The subject of another data set is N. gonorrhoeae WHO L. Conditions: microdilution in FB, ~5 × 10^4 CFU, 24 hr, 37°C, 5% CO2. How it is done: as §1, §2, §3, §4, §5, §6, §7, §8, §9, §10, §11
The next data set deals with N. gonorrhoeae FA1090. Conditions: microdilution in FB, ~5 × 10^4 CFU, 24 hr, 37°C, 5% CO2. How it is done: as §1, §2, §3, §4, §5, §6, §7, §8, §9, §10, §11
In a further data set the test system is N. gonorrhoeae WHO F. The settings on record: microdilution in FB, ~5 × 10^4 CFU, 24 hr, 37°C, 5% CO2, lowest concentration preventing growth. Here is the method: as §1, §2, §3, §4, §5, §6, §7, §8, §9, §10, §11
The subject of a further data set is N. gonorrhoeae MS11ΔIgAP. The settings on record: microdilution in FB, ~5 × 10^4 CFU, 24 hr, 37°C, 5% CO2. How it is done: as §1, §2, §3, §4, §5, §6, §7, §8, §9, §10, §11
Data set [1] deals with N. gonorrhoeae FA1090ΔIgAP. The settings on record: microdilution in FB, ~5 × 10^4 CFU, 24 hr, 37°C, 5% CO2. How it is done:
as §1, §2, §3, §4, §5, §6, §7, §8, §9, §10, §11

As usually defined, the MIC is the lowest concentration that inhibits growth of the organism. A higher MIC goes with a need for much substance.

≈ marks a conversion by molar mass, not a printed value. Where a SMILES comes first, the peptide text is derived from it. [ ]: non-standard residue; d: D form. The star is where a group is joined. d(aIle) = CC[C@H](C)[C@@H](N)C(=O)O; dDab = NCC[C@@H](N)C(=O)O; Octanoyl = CCCCCCCC(=O)*; Dab = NCC[C@H](N)C(=O)O; AEEA = NCCOCCOCC(=O)O

Take `CCCCCCCC(=O)N[C@@H](C(=O)N[C@H](CCN)C(=O)NCC(=O)N[C@H](CO)C(=O)N[C@H](Cc1c[nH]c2ccccc12)C(=O)N[C@@H](CO)C(=O)N[C@@H](CCN)C(=O)N[C@H](CCN)C(=O)N[C@@H](Cc1ccccc1)C(=O)N[C@@H](CCC(=O)O)C(=O)N[C@H](C(=O)N[C@@H](C(=O)N[C@@H](C)C(=O)NCCOCCOCC(=O)N[C@@H](CC(C)C)C(=O)N1CCC[C@H]1C(=O)N[C@@H](CCCNC(=N)N)C(=O)N1CCC[C@H]1C(=O)N1CCC[C@H]1C(=O)O)[C@@H](C)CC)C(C)C)C(C)C` [Oct-TriA1-c] (Octanoyl-[dV][dDab]G[dS][dW]S[Dab][dDab]FEV[d(aIle)]A[AEEA]LPRPP-OH): the “LDH (EC50) 4 h” value with HK-2 cells (2 × 10^4 cells/well, LDH release OD490, 4 h) amounted to 86.42 µg/mL. In addition, the “LDH (EC50) 24 h” value with HK-2 cells (LDH release OD490, 24 h) was determined as 57.71 µg/mL. Besides, in the data set on HK-2 cells (LDH release OD490, 48 h), the “LDH (EC50) 48 h” value came out at 50.03 µg/mL. The MIC against N. gonorrhoeae MS11ΔmtrE amounted to 1.56 µg/mL (≈ 0.701 µM); against N. gonorrhoeae WHO N it was 3.13 µg/mL (≈ 1.41 µM); in the data set with N. gonorrhoeae WHO M it was 1.56 µg/mL (≈ 0.701 µM); with N. gonorrhoeae WHO K, 3.13 µg/mL (≈ 1.41 µM); in the data set on N. gonorrhoeae WHO O, 3.13 µg/mL (≈ 1.41 µM); in the data set with N. gonorrhoeae MS11 it was 3.13 µg/mL (≈ 1.41 µM). Further, the minimum inhibitory concentration (MIC) in the data set on N. gonorrhoeae WHO G stood at 3.13 µg/mL (≈ 1.41 µM); against N. gonorrhoeae WHO L, 1.56 µg/mL (≈ 0.701 µM); against N. gonorrhoeae FA1090, 0.78 µg/mL (≈ 0.35 µM); in the data set on N. gonorrhoeae WHO F it was 1.56 µg/mL (≈ 0.701 µM); in the data set with N. gonorrhoeae MS11ΔIgAP, 6.25 µg/mL (≈ 2.81 µM); in data set [1], 0.78 µg/mL (≈ 0.35 µM).
